Measurements as given in patent US20080261994A1, “CYCLOPROPANE COMPOUNDS AND PHARMACEUTICAL USE THEREOF” (Japan Tobacco Inc., priority 2003, published 2008).
pIC50: −log10 of the molar value. Like-named read-outs stand apart in the source and are kept apart here. One block for each compound: values may come before it.

Legend:
Format in all cases: biochemical
MMP-1 = molecular target: T1, MMP-1 (Homo sapiens, UniProt P03956); test: MMP-1 inhibitory action (Type I collagen Activity Measurement kit, FITC-labeled collagen type I)
T1 sequence (P03956 100-469): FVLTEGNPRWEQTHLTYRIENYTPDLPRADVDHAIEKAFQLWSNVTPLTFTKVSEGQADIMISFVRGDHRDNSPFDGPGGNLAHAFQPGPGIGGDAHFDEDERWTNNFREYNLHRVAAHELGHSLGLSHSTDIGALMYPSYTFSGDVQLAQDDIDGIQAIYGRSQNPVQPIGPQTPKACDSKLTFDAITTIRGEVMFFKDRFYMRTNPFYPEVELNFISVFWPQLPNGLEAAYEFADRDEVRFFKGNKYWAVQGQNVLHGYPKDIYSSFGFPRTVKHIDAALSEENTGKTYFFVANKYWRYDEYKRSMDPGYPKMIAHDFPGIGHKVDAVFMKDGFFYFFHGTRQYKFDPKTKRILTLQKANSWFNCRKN

Recombinant Human MMP-13 = molecular target: T2, Recombinant Human MMP-13 (Homo sapiens, UniProt P45452); test: MMP-13 inhibitory activity (MMP-13 specific fluorescent substrate with quencher)
T2 construct: purchased R&D systems 511-MM
Protocol: Inhibitory activity of tested compounds on MMP-13 was measured using MMP-13 specific fluorescent substrate with quencher.
The enzyme and substrate were diluted with Tris-HCl buffer, and test compounds were diluted with dimethyl sulfoxide (DMSO).
Test compounds and the enzyme (Recombinant Human MMP-13: R&D systems, 511-MM) were added into 96-well plate. The reaction was initiated by adding synthetic substrate (7-MCA-Pro-CHA-Gly-NVal-His-Ala-DPA: enzyme systems products, Met-06) into the plate. After incubation at 25° C. for 1 h, the reaction was terminated by addition of reaction terminating solution containing acetic acid. Fluorescence intensity of each well was measured (Ex: 325 nm, […] 405 nm) and the MMP-13 inhibitory activity of the compound in each well (%) was calculated based on the values of enzyme-free well and inhibitor-free well. The inhibitory activity of the compound was represented as IC50 (μM).

aggrecanase-1 = molecular target: T3, aggrecanase-1 (Homo sapiens, UniProt O75173); test: Aggrecanase-1 inhibitory action (Particle Assay, GAG release from aggrecan-containing polyacrylamide particles)
T3 sequence (O75173 213-837): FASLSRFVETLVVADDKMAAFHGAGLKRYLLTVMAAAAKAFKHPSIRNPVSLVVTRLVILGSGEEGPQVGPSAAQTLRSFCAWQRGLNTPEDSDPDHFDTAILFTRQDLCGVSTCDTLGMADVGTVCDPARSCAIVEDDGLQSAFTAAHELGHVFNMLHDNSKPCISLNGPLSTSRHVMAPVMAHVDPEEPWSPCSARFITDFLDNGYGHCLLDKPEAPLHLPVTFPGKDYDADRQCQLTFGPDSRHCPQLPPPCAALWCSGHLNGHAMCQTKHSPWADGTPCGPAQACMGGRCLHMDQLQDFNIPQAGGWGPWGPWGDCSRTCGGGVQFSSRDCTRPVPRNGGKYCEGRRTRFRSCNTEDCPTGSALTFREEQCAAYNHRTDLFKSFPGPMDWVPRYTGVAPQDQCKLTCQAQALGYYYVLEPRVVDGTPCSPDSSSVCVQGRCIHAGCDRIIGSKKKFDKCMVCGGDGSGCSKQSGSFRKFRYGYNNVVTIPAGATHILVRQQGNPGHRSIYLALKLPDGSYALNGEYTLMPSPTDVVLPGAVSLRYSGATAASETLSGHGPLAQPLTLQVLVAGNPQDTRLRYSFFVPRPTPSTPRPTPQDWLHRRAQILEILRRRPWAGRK
In short: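 Readout was dimethylmethylene blue absorbance (595 nm) of glycosaminoglycan liberated into supernatant, calibrated with whale chondroitin sulfate. Substrate was aggrecan in polyacrylamide particles, digested 15 h at 37° C in Tris-HCl; TC50 (μM) derived from inhibition relative to no-enzyme and no-inhibitor controls.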

[1] = Experimental Example 2, read-out: IC50 MMP1
[2] = Experimental Example 3, read-out: IC50 MMP13
[3] = Experimental Example 1, read-out: IC50 AG1
[4] = MMP-1 inhibitory action, FITC-labeled collagen type I, 37° C. for 3 hr, read-out: IC50 MMP1 (Experimental Example 2)
[5] = Recombinant Human MMP-13, fluorescent substrate, 25° C. for 1 h, read-out: IC50 MMP13 (Experimental Example 3)
[6] = aggrecanase-1 inhibitory action, read-out: IC50 AG1 (Experimental Example 1)

Compound: Cc1csc(-c2cccc(C3CC3(NS(=O)(=O)c3ccc(-c4ccc(Cl)cc4)s3)C(=O)O)c2)n1 (stereo not drawn) [Example 2-86]
pIC50 (MMP-1; [4]): ≤ 5.00
pIC50 (Recombinant Human MMP-13; [5]): > 6.00
pIC50 (aggrecanase-1; [6]): > 7.00

Compound: O=C(OCCCc1ccccc1C1CC1(NS(=O)(=O)c1ccc(-c2cc(C(F)(F)F)on2)s1)C(=O)O)N1CCOCC1 (stereo not drawn) [Example 2-253]
pIC50 (MMP-1; [4]): ≤ 6.00
pIC50 (Recombinant Human MMP-13; [5]): > 7.00
pIC50 (aggrecanase-1; [6]): > 7.00

Compound: O=C(Cc1cccc(C2CC2(NS(=O)(=O)c2ccc(-c3cc(C(F)(F)F)on3)s2)C(=O)O)c1)N1CCOCC1 (stereo not drawn) [Example 2-220]
pIC50 (MMP-1; [4]): ≤ 6.00
pIC50 (Recombinant Human MMP-13; [5]): > 7.00
pIC50 (aggrecanase-1; [6]): > 7.00

Compound: NC(=O)OCC1(c2ccccc2)CC1(NS(=O)(=O)c1ccc(-c2cc(C(F)(F)F)on2)s1)C(=O)O (stereo not drawn) [Example 2-335]
pIC50 (MMP-1; [1]): ≤ 6.00
pIC50 (Recombinant Human MMP-13; [2]): > 6.00
pIC50 (aggrecanase-1; [3]): > 6.00

Compound: O=C(O)C1(NS(=O)(=O)c2ccc(-c3cc(C(F)(F)F)on3)s2)C2CCC(O)c3ccccc3C21 (stereo not drawn) [Example 2-437]
pIC50 (MMP-1; [1]): > 6.00
pIC50 (Recombinant Human MMP-13; [2]): > 7.00
pIC50 (aggrecanase-1; [3]): > 7.00

Compound: O=C(O)C1(NS(=O)(=O)c2ccc(-c3ccc(Cl)cc3)s2)CC1(CN1CCOCC1)c1ccccc1 (stereo not drawn) [Example 2-341]
pIC50 (MMP-1; [1]): ≤ 5.00
pIC50 (Recombinant Human MMP-13; [2]): ≤ 6.00
pIC50 (aggrecanase-1; [3]): > 7.00

Compound: O=C(O)C1(NS(=O)(=O)c2ccc(-c3cc(C(F)(F)F)on3)s2)CC1(CCCO)c1ccccc1 (stereo not drawn) [Example 2-248]
pIC50 (MMP-1; [4]): ≤ 6.00
pIC50 (Recombinant Human MMP-13; [5]): > 6.00
pIC50 (aggrecanase-1; [6]): > 7.00

Compound: CC(C)(O)COc1cccc(C2CC2(NS(=O)(=O)c2ccc(-c3ccc(Cl)cc3)s2)C(=O)O)c1 (stereo not drawn) [Example 2-42]
pIC50 (MMP-1; [4]): ≤ 5.00
pIC50 (Recombinant Human MMP-13; [5]): > 7.00
pIC50 (aggrecanase-1; [6]): > 7.00

Compound: O=C(O)COCC1(c2ccccc2)CC1(NS(=O)(=O)c1ccc(-c2ccc(Cl)cc2)s1)C(=O)O (stereo not drawn) [Example 2-405]
pIC50 (MMP-1; [1]): ≤ 5.00
pIC50 (Recombinant Human MMP-13; [2]): > 6.00
pIC50 (aggrecanase-1; [3]): > 7.00

Compound: O=C(O)C1(NS(=O)(=O)N2CCn3c(cc4cc(Cl)ccc43)C2)CC1c1ccccc1 (stereo not drawn) [Example 2-156]
pIC50 (MMP-1; [4]): ≤ 5.00
pIC50 (Recombinant Human MMP-13; [5]): ≤ 6.00
pIC50 (aggrecanase-1; [6]): ≤ 6.00

Compound: O=C(O)C1(NS(=O)(=O)c2ccc(-c3ccc(Cl)cc3)s2)CC1C1CCCC1 (stereo not drawn) [Example 2-61]
pIC50 (MMP-1; [4]): ≤ 5.00
pIC50 (Recombinant Human MMP-13; [5]): > 6.00
pIC50 (aggrecanase-1; [6]): > 6.00

Compound: O=C(NC1CC1)c1ccc(S(=O)(=O)NC2(C(=O)O)CC2c2ccccc2)s1 (stereo not drawn) [Example 2-105]
pIC50 (MMP-1; [4]): ≤ 5.00
pIC50 (Recombinant Human MMP-13; [5]): ≤ 5.00
pIC50 (aggrecanase-1; [6]): ≤ 5.00

Compound: COC(=O)c1cccc(C2CC2(NS(=O)(=O)c2ccc(-c3ccc(Cl)cc3)s2)C(=O)O)c1 (stereo not drawn) [Example 2-184]
pIC50 (MMP-1; [4]): ≤ 6.00
pIC50 (Recombinant Human MMP-13; [5]): > 6.00
pIC50 (aggrecanase-1; [6]): > 7.00

Second part, the compound after the results:

pIC50 (MMP-1; [1]): > 6.00
pIC50 (Recombinant Human MMP-13; [2]): > 7.00
pIC50 (aggrecanase-1; [3]): > 7.00
Compound: CC1[C@H](c2ccccc2)[C@]1(NS(=O)(=O)c1ccc(-n2cc(Cl)cn2)s1)C(=O)O (stereo partly drawn) [Example 2-444]

pIC50 (MMP-1; [1]): ≤ 5.00
pIC50 (Recombinant Human MMP-13; [2]): ≤ 6.00
pIC50 (aggrecanase-1; [3]): ≤ 6.00
Compound: CC1[C@H](c2ccccc2)[C@]1(NS(=O)(=O)N1CCN(c2nc3ccccc3s2)CC1)C(=O)O (stereo partly drawn) [Example 2-463]

pIC50 (MMP-1; [1]): ≤ 5.00
pIC50 (Recombinant Human MMP-13; [2]): ≤ 5.00
pIC50 (aggrecanase-1; [3]): ≤ 6.00
Compound: Cc1cc(N2CCN(S(=O)(=O)N[C@@]3(C(=O)O)C(C)[C@@H]3c3ccccc3)CC2=O)no1 (stereo partly drawn) [Example 2-476]

pIC50 (MMP-1; [1]): ≤ 6.00
pIC50 (Recombinant Human MMP-13; [2]): ≤ 6.00
pIC50 (aggrecanase-1; [3]): ≤ 6.00
Compound: CC(C)OC(=O)N1CCN(S(=O)(=O)N[C@@]2(C(=O)O)C[C@@H]2c2ccccc2)CC1 [Example 2-510]

pIC50 (MMP-1; [1]): ≤ 6.00
pIC50 (Recombinant Human MMP-13; [2]): > 6.00
pIC50 (aggrecanase-1; [3]): > 7.00
Compound: C[C@]1(c2ccccc2)C[C@@]1(NS(=O)(=O)c1ccc(-c2ccc(F)c(F)c2)s1)C(=O)O [Example 2-581]

pIC50 (MMP-1; [1]): > 6.00
pIC50 (Recombinant Human MMP-13; [2]): > 7.00
pIC50 (aggrecanase-1; [3]): > 7.00
Compound: C[C@]1(c2ccccc2)C[C@@]1(NS(=O)(=O)c1ccc2c(c1)Cc1cc(Cl)ccc1-2)C(=O)O [Example 2-568]
